“Also recorded” adds a separate entry of the source.
Assays:
Type in all cases: in vivo
[1] = system: dorylaimida (predatory, not plant parasitic nematodes); assay: Example 1 pot test, soil populations of dorylaimida; settings: soil drench 25-200 mg A.I./kg soil
Description: (§1) Hydrogen cyanamide (Dormex® formulation, Dormex Corp.) and dimethyl cyanamide (Aldrich) were delivered in aqueous preparations (1.25% active ingredient) (A.I.) prepared immediately before use by diluting in demineralized water while stirring with a magnetic stirrer. Each compound was delivered at rates of 0, 25, 50, 75, 100, 150, and 200 mg A.I./kg soil—equivalent to 0, 50, 100, 150, 200, 300, and 400 lbs A.I./acre.
(§2) Each treatment was delivered by drenching the compound in 100 mL aqueous volume onto the soil surface in pots (10-cm diam.; PVC) containing 1 kg soil. The soil (silt loam; pH 6.2; cec<10 meq/100 gm soil; org. matter<1.0%) was from a cotton field severely infested with the reniform nematode (Rotylenchulus reniformis). Immediately after treatment the pots were covered with a thick (1.5 mil) clear low density polyethylene bag held tight against the outer wall of the pot by a rubber band. Eleven days after application the bags were removed and soil samples were taken from every pot (experimental unit) for nematological analysis (salad bowl incubation technique). […] Final root and soil nematode populations were determined and plant growth parameters (number & height of plants, weights of shoots and roots, root condition indices) were recorded. […]

[2] = system: beneficial microbivorous nematodes; assay: Example 1 pot test, microbivorous nematodes in soil; settings: soil drench 25-200 mg A.I./kg soil
Description: as §1, §2

[3] = system: reniform nematode (Rotylenchulus reniformis); assay: Example 1 pot test, soil drench, reniform nematode in soil and soybean roots; settings: for nematicidal activity against the reniform nematode in soil and soybean roots: soil drench 25-200 mg A.I./kg soil, soil sampled 11 days after application and after eight weeks of soybean growth, FIGS. 1-6
Description: as §1
Each treatment was delivered by drenching the compound in 100 mL aqueous volume onto the soil surface in pots (10-cm diam.; PVC) containing 1 kg soil. The soil (silt loam; pH 6.2; cec<10 meq/100 gm soil; org. matter<1.0%) was from a cotton field severely infested with the reniform nematode (Rotylenchulus reniformis). Immediately after treatment the pots were covered with a thick (1.5 mil) clear low density polyethylene bag held tight against the outer wall of the pot by a rubber band. Eleven days after application the bags were removed and soil samples were taken from every pot (experimental unit) for nematological analysis (salad bowl incubation technique). Each pot was then planted with five seeds of nematode-susceptible “Hutcheson” soybean (glycine max) and the resulting plants were grown for eight weeks, at which time the plants were removed and soil samples were taken from each pot. Final root and soil nematode populations were determined and plant growth parameters (number & height of plants, weights of shoots and roots, root condition indices) were recorded.
Major pests: The reniform nematode [Rotylenchulus reniformis].
(§3) Experimental design: Randomized complete block with seven replications/treatment.
(§4) Statistical analyses: ANOVA and Fischer's least significant difference [FLSD] at p 0.05. Regression analyses.

[4] = system: Yellow nutsedge [Cyperus esculentus], crabgrass [Digitaria sanguinalis], sicklepod [Senna obtusifolia], morningglory [Ipomoea spp.], and other annual weeds; assay: Example 3 herbicidal pot test, soil drench, weed counts; settings: for herbicidal activity against all weed species tested: soil drench 100-800 mgs. A.I./kg soil, weed counts 11, 19, 26 and 32 days after application, FIGS. 11-12
Description: Hydrogen cyanamide and dimethyl cyanamide were delivered in aqueous 5% solutions prepared immediately before use by diluting in demineralized water while stirring with a magnetic stirrer. Both chemicals were obtained from Aldrich. Each compound was delivered at rates of 0, 100, 200, 300, 400, 600, and 800 mgs. A.I./kg soil—equivalent to 0, 200, 400, 600, 800, 1200, and 1600 lbs A.I./acre.
(§5) Each treatment was delivered by drenching in 100 mL aqueous volume onto the soil surface in pots [10-cm diam.; PVC] containing 1 kg soil. The soil was from a cotton field [silt loam; ph 6.2; cec<10 meq/100 gm soil; org. matter<1.0%]. Immediately after treatment the pots were covered by a thick [1.5 mil] clear low density polyethylene bag held tight against the outer wall of the pot by a rubber band. Eleven days after application the bags were removed. Weed counts were taken from each pot [experimental unit] at 11, 19, 26 and 32 days after application of the treatments.
Major pests: Yellow nutsedge [Cyperus esculentus], crabgrass [Digitaria sanguinalis], sicklepod [Senna obtusifolia], morningglory [Ipomoea spp.], and other annual weeds.
Experimental design: Randomized complete block with seven replications/treatments.
as §4

[5] = system: dorylaimida (predatory, not plant parasitic nematodes); assay: Example 2 pot test, soil populations of dorylaimida; settings: soil drench 20-150 mgs. A.I./kg soil
Description: (§6) Dimethyl cyanamide and diisopropyl cyanamide (both obtained from Aldrich) were delivered in aqueous preparations (1.25% active ingredient) (A.I.) prepared immediately before use by diluting in demineralized water while stirring with a magnetic stirrer. […] Each compound was delivered at rates of 0, 20, 40, 60, 80, 100, and 150 mgs. A.I./kg soil—equivalent to […].
as §2, with “drenching” for “drenching the compound”, “nematode [Rotylenchulus reniformis].” for “nematode (Rotylenchulus reniformis).”, “covered by” for “covered with”, “(number and” for “(number &”

[6] = system: beneficial microbivorous nematodes; assay: Example 2 pot test, microbivorous nematodes in soil; settings: soil drench 20-150 mgs. A.I./kg soil
Description: as §6
as §2, with “drenching” for “drenching the compound”, “nematode [Rotylenchulus reniformis].” for “nematode (Rotylenchulus reniformis).”, “covered by” for “covered with”, “(number and” for “(number &”

[7] = system: "Hutcheson" soybean (glycine max); assay: Example 1 pot test, growth of soybean plants in nematode-infested soil; settings: after eight weeks of growth
Description: as §1, §2

[8] = system: Yellow nutsedge [Cyperus esculentus], crabgrass [Digitaria sanguinalis], sicklepod [Senna obtusifolia], morningglory [Ipomoea spp], and other annual weeds; assay: Example 4 herbicidal pot test, dimethyl cyanamide alone and in combination with EPTC, weed counts
Description: Dimethyl cyanamide was delivered in a 5% aqueous solution. The herbicide EPTC [ethyl n-propyl thiocarbamate] was delivered in an aqueous emulsion containing 0.1192% A.I. Both formulations were prepared immediately before use by diluting or mixing [a concentrated formulation?] in demineralized water while stirring with a magnetic stirrer. The dimethyl cyanamide was obtained from Aldrich. The EPTC used was a commercial formulation [Eptam® herbicide, Gowan].
Dimethyl cyanamide was applied at rates of 0, 50, 100, 200, 300, and 400 mg A.I./kg soil—equivalent to 0, 100, 200, 400, 600, and 800 lbs A.I./acre, respectively. EPTC was delivered at 0 and 3.576 mg/kg soil, equivalent to 0 and approximately 7 lbs. A.I./acre. All possible combinations of the two compounds at their corresponding rates were included in the experiment.
as §5, with “matter<1.0%1.” for “matter<1.0%].”, “Six” for “Eleven”, “6, 12, 17, 47,” for “11, 19, 26”, “62” for “32”, “treatments. […]” for “treatments.”

[9] = system: reniform nematode [Rotylenchulus reniformis]; assay: Example 2 pot test, soil drench, reniform nematode in soil; settings: soil drench 20-150 mgs. A.I./kg soil; FIGS. 7-10
Description: as §6
as §2, with “drenching” for “drenching the compound”, “nematode [Rotylenchulus reniformis].” for “nematode (Rotylenchulus reniformis).”, “covered by” for “covered with”, “(number and” for “(number &”

[10] = system: "Rowden" cotton (Gossipyum hirsutum); assay: Example 2 pot test, growth and root health of cotton plants in nematode-infested soil
Description: as §6
Each treatment was delivered by drenching in 100 mL aqueous volume onto the soil surface in pots (10-cm diam.; PVC) containing 1 kg soil. The soil (silt loam; pH 6.2; cec<10 meq/100 gm soil; org. matter<1.0%) was from a cotton field severely infested with the reniform nematode [Rotylenchulus reniformis]. Immediately after treatment the pots were covered by a thick (1.5 mil) clear low density polyethylene bag held tight against the outer wall of the pot by a rubber band. Eleven days after application the bags were removed and soil samples were taken from every pot (experimental unit) for nematological analysis (salad bowl incubation technique). Each pot was then planted with five seeds of nematode-susceptible “Rowden” cotton (Gossipyum hirsutum) and the resulting plants were grown for eight weeks, at which time the plants were removed and soil samples were taken from each pot. Final root and soil nematode populations were determined and plant growth parameters (number and height of plants, weights of shoots and roots, root condition indices) were recorded.
as §3
Statistical analyses: ANOVA and Fischer's least significant difference [FLSD] at p
0.05. Regression analyses.

Row | SMILES | soil populations of dorylaimida [1] | effect on beneficial microbivorous nematodes [2] | nematicidal activity against the reniform nematode in soil and soybean roots [3] | root populations of the reniform nematode, compared between the two compounds ([3]; soybean roots after eight weeks, hydrogen cyanamide vs dimethyl cyanamide) | herbicidal activity against all weed species tested [4] | soil populations of dorylaimida [5] | soil populations of beneficial microbivorous nematodes [6] | soybean plant height and weights of shoots and roots, compared with pots treated with hydrogen cyanamide [7] | herbicidal activity of dimethyl cyanamide during the initial counts in the presence of EPTC [8] | nematicidal activity against the reniform nematode in soil [9] | root health as indicated by root appearance indices ([10]; dimethyl cyanamide: two highest rates, diisopropyl cyanamide: any rate) | number of cotton plants/pot, dimethyl cyanamide vs diisopropyl cyanamide ([10]; in vivo) | cotton plant heights and shoot and root weights ([10]; two highest rates, after eight weeks) | effectiveness as a nematicide relative to hydrogen cyanamide ([3]; considered in terms of the rates of cyanamide anion applied) | overall results on delivery at the same rate (kg/ha) as hydrogen cyanamide ([3]; same weight rate, hydrogen cyanamide contains approximately 1.66 times as much cyanamide (NCN group)) | herbicidal activity compared with hydrogen cyanamide ([4]; dose-response expressed in terms of mg of CN added to the soil, one exception (sicklepod))
1 | N#CN [hydrogen cyanamide, Hydrogen cyanamide, reference compound] | similarly reduced | not significantly affected | nematicidal, resulting in suppression or elimination of the reniform nematode in soil and soybean roots | lower | herbicidal against all weed species tested |  |  |  |  |  |  |  |  |  |  | 
2 | CC(C)N(C#N)C(C)C [diisopropyl cyanamide, reference compound] |  |  |  |  |  | either reduced or not affected | either reduced or not affected |  |  |  |  |  |  |  |  | 
3 | CN(C)C#N [dimethyl cyanamide, Dimethyl cyanamide] | similarly reduced | not significantly affected | nematicidal, resulting in suppression or elimination of the reniform nematode in soil and soybean roots; also recorded: powerful nematicide |  | herbicidal against all weed species tested; also recorded: considerable herbicidal activity equivalent to or better than that shown by hydrogen cyanamide | either reduced or not affected | either reduced or not affected | taller and with heavier shoots and roots | almost “masked” by that of EPTC | nematicidal, resulting in suppression or elimination of the reniform nematode in soil; also recorded: powerful nematicide | markedly improved | higher | concomitant increase | more effective as a nematicide than hydrogen cyanamide | very similar results overall | superior to hydrogen cyanamide as a herbicide
